Data from publication PMC9403976, “Elucidating the path to Plasmodium prolyl-tRNA synthetase inhibitors that overcome halofuginone resistance” (Nature Communications, 2022).
Values joined by “and” are separate entries in the source; they are usually repeats but may differ in a detail not shown here. Equal values may be shown once. Read-outs that look alike come from different tables or passages of the source.

Legend:
PfcProRS = molecular target: T1, PfcProRS (Plasmodium falciparum, UniProt Q8I5R7); assay type: binding; conditions: for dose-response signal (normalized), SI Fig 8: single replicates, listed as Halofuginone (1)
T1 construct: made in house; host or cells: E. coli SoluBL-21

HsProRS = HsProRS (Homo sapiens, UniProt P07814); assay: TR-FRET ligand displacement assay with tracer MAT379 (CoraFluor-1-Halo and anti-His6 antibody formats); assay type: binding; design: made in house; host or cells: E. coli SoluBL-21; conditions: for TR-FRET dose-response, normalized signal (SI Fig 11): individual replicates; for normalized TR-FRET signal (dose-response replicates): SI Fig 15, antibody format
[1] = Log[inhibitor] (M) -5.000, listed as Halofuginone (1)

HsProRS, sequence (P07814 996-1512): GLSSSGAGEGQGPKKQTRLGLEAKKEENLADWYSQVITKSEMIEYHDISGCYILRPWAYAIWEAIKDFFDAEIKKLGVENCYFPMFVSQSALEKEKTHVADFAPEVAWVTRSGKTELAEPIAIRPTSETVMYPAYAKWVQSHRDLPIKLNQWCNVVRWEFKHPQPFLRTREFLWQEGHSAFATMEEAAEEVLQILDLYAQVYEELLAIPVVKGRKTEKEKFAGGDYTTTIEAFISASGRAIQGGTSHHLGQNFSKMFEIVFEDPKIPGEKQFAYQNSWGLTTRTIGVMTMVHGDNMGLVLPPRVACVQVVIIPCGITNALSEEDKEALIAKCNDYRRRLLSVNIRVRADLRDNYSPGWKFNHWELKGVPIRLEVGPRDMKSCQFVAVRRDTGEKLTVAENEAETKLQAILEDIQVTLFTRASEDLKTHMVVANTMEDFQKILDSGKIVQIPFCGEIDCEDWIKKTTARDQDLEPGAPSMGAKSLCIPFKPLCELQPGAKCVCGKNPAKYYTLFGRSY
T1 sequence (Q8I5R7 249-746): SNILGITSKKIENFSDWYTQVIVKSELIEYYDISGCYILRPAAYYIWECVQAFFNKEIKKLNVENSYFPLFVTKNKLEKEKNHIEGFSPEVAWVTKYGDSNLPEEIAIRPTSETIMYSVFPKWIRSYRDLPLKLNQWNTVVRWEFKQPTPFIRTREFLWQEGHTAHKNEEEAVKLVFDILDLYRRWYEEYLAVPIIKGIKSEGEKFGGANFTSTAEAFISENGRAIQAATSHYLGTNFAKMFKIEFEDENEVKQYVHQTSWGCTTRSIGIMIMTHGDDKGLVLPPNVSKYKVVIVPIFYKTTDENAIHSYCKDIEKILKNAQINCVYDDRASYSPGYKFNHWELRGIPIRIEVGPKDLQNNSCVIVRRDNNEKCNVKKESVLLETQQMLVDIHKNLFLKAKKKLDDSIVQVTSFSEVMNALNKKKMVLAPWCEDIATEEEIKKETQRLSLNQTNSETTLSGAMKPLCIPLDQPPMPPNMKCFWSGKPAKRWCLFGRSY

O=C(CC1NCCCC1O)Cn1cnc2cc(Br)c(Cl)cc2c1=O (centres unmarked) [Halofuginone]
dose-response signal (normalized), SI Fig 8 (PfcProRS; Log[inhibitor] (M) -7.553): 9.85E-01 and 1.03E+00 and 9.40E-01
dose-response signal (normalized), SI Fig 8 (PfcProRS; Log[inhibitor] (M) -7.796): 9.66E-01 and 1.04E+00 and 1.00E+00
dose-response signal (normalized), SI Fig 8 (PfcProRS; Log[inhibitor] (M) -8.097): 1.01E+00 and 9.81E-01 and 1.00E+00
dose-response signal (normalized), SI Fig 8 (PfcProRS; Log[inhibitor] (M) -8.398): 9.48E-01 and 1.10E+00 and 1.01E+00
dose-response signal (normalized), SI Fig 8 (PfcProRS; Log[inhibitor] (M) -8.585): 1.08E+00 and 9.61E-01 and 9.66E-01
PfcProRS -- best Kd (PfcProRS; SI Fig 16a, values on -log scale): 9.298
normalized TR-FRET signal (Fig 2j) (HsProRS; Halofuginone series, Log[inhibitor] (M) -5.301): 4.67E-01 and 4.34E-01 and 5.01E-01
normalized TR-FRET signal (Fig 2j) (HsProRS; Halofuginone series, Log[inhibitor] (M) -5.602): 6.44E-01 and 5.92E-01 and 5.65E-01
normalized TR-FRET signal (Fig 2j) (HsProRS; Halofuginone series, Log[inhibitor] (M) -7.107): 1.11E+00 and 9.45E-01 and 9.98E-01
Kd (HsProRS; HsProRS - best Kd, SI Fig 16a, values on -log scale): 0.225 nM
TR-FRET dose-response, normalized signal (SI Fig 11) (HsProRS; [1]): 1.22E-01 and 1.04E-01 and 9.99E-02
normalized TR-FRET ligand displacement signal, dose-response replicates (SI Fig 6) (HsProRS; [1]): 8.67E-01 and 9.21E-01 and 8.89E-01
normalized TR-FRET ligand displacement signal, dose-response replicates (SI Fig 6) (HsProRS; Log[inhibitor] (M) -5.258, listed as Halofuginone (1)): 9.18E-01 and 9.29E-01 and 9.59E-01
TR-FRET dose-response, normalized signal (SI Fig 11) (HsProRS; Log[inhibitor] (M) -5.301, listed as Halofuginone (1)): 2.23E-01 and 2.19E-01 and 2.35E-01
normalized TR-FRET ligand displacement signal, dose-response replicates (SI Fig 6) (HsProRS; Log[inhibitor] (M) -5.517, listed as Halofuginone (1)): 9.53E-01 and 1.02E+00 (2×)
TR-FRET dose-response, normalized signal (SI Fig 11) (HsProRS; Log[inhibitor] (M) -5.602, listed as Halofuginone (1)): 3.79E-01 and 3.48E-01 and 2.87E-01
normalized TR-FRET ligand displacement signal, dose-response replicates (SI Fig 6) (HsProRS; Log[inhibitor] (M) -5.775, listed as Halofuginone (1)): 1.06E+00 and 1.00E+00 and 1.07E+00
normalized TR-FRET signal (Fig 2j) (HsProRS; Log[inhibitor] (M) -5.903): 7.44E-01 and 8.56E-01 and 7.84E-01
TR-FRET dose-response, normalized signal (SI Fig 11) (HsProRS; Log[inhibitor] (M) -5.903, listed as Halofuginone (1)): 5.30E-01 and 5.36E-01 and 5.41E-01
normalized TR-FRET ligand displacement signal, dose-response replicates (SI Fig 6) (HsProRS; Log[inhibitor] (M) -6.018, listed as Halofuginone (1)): 1.05E+00 and 1.10E+00 and 1.02E+00
normalized TR-FRET signal (Fig 2j) (HsProRS; Log[inhibitor] (M) -6.204): 8.25E-01 and 9.54E-01 and 7.75E-01
TR-FRET dose-response, normalized signal (SI Fig 11) (HsProRS; Log[inhibitor] (M) -6.204, listed as Halofuginone (1)): 7.34E-01 and 7.40E-01 and 6.73E-01
normalized TR-FRET ligand displacement signal, dose-response replicates (SI Fig 6) (HsProRS; Log[inhibitor] (M) -6.281, listed as Halofuginone (1)): 1.08E+00 and 1.03E+00 and 1.07E+00
normalized TR-FRET signal (Fig 2j) (HsProRS; Log[inhibitor] (M) -6.505): 1.04E+00 and 9.85E-01 and 1.03E+00
TR-FRET dose-response, normalized signal (SI Fig 11) (HsProRS; Log[inhibitor] (M) -6.505): 7.32E-01
TR-FRET dose-response, normalized signal (SI Fig 11) (HsProRS; Log[inhibitor] (M) -6.505, listed as Halofuginone (1)): 7.86E-01 and 7.92E-01
normalized TR-FRET ligand displacement signal, dose-response replicates (SI Fig 6) (HsProRS; Log[inhibitor] (M) -6.535, listed as Halofuginone (1)): 1.04E+00 and 1.03E+00 and 9.64E-01
normalized TR-FRET ligand displacement signal, dose-response replicates (SI Fig 6) (HsProRS; Log[inhibitor] (M) -6.796, listed as Halofuginone (1)): 1.04E+00 and 1.03E+00 (2×)
normalized TR-FRET signal (Fig 2j) (HsProRS; Log[inhibitor] (M) -6.806): 9.63E-01 and 9.86E-01 and 9.32E-01
TR-FRET dose-response, normalized signal (SI Fig 11) (HsProRS; Log[inhibitor] (M) -6.806, listed as Halofuginone (1)): 8.94E-01 and 8.80E-01 and 8.52E-01
normalized TR-FRET ligand displacement signal, dose-response replicates (SI Fig 6) (HsProRS; Log[inhibitor] (M) -7.056, listed as Halofuginone (1)): 1.05E+00 and 1.11E+00 and 1.07E+00
TR-FRET dose-response, normalized signal (SI Fig 11) (HsProRS; Log[inhibitor] (M) -7.107, listed as Halofuginone (1)): 9.88E-01 and 8.65E-01 and 9.16E-01
normalized TR-FRET ligand displacement signal, dose-response replicates (SI Fig 6) (HsProRS; Log[inhibitor] (M) -7.319, listed as Halofuginone (1)): 1.04E+00 (2×) and 1.02E+00
normalized TR-FRET signal (Fig 2j) (HsProRS; Log[inhibitor] (M) -7.408): 1.05E+00 and 9.28E-01 and 8.93E-01
TR-FRET dose-response, normalized signal (SI Fig 11) (HsProRS; Log[inhibitor] (M) -7.408, listed as Halofuginone (1)): 9.10E-01 and 9.40E-01 and 9.15E-01
normalized TR-FRET ligand displacement signal, dose-response replicates (SI Fig 6) (HsProRS; Log[inhibitor] (M) -7.553): 1.10E+00
normalized TR-FRET ligand displacement signal, dose-response replicates (SI Fig 6) (HsProRS; Log[inhibitor] (M) -7.553, listed as Halofuginone (1)): 1.16E+00
normalized TR-FRET signal (Fig 2j) (HsProRS; Log[inhibitor] (M) -7.709): 9.59E-01 and 9.28E-01 and 9.82E-01
TR-FRET dose-response, normalized signal (SI Fig 11) (HsProRS; Log[inhibitor] (M) -7.709, listed as Halofuginone (1)): 9.34E-01 (2×) and 9.38E-01
normalized TR-FRET ligand displacement signal, dose-response replicates (SI Fig 6) (HsProRS; Log[inhibitor] (M) -7.796, listed as Halofuginone (1)): 1.10E+00 and 1.04E+00 and 1.03E+00
normalized TR-FRET signal (Fig 2j) (HsProRS; Log[inhibitor] (M) -8.010): 9.03E-01 and 1.00E+00 and 9.95E-01
TR-FRET dose-response, normalized signal (SI Fig 11) (HsProRS; Log[inhibitor] (M) -8.010, listed as Halofuginone (1)): 9.18E-01 and 9.71E-01 and 9.55E-01
normalized TR-FRET ligand displacement signal, dose-response replicates (SI Fig 6) (HsProRS; Log[inhibitor] (M) -8.097, listed as Halofuginone (1)): 1.01E+00 and 1.03E+00 and 1.08E+00
normalized TR-FRET signal (Fig 2j) (HsProRS; Log[inhibitor] (M) -8.311): 9.63E-01 and 1.06E+00 and 1.04E+00
TR-FRET dose-response, normalized signal (SI Fig 11) (HsProRS; Log[inhibitor] (M) -8.311, listed as Halofuginone (1)): 9.28E-01 and 9.37E-01 and 9.39E-01
normalized TR-FRET ligand displacement signal, dose-response replicates (SI Fig 6) (HsProRS; Log[inhibitor] (M) -8.398, listed as Halofuginone (1)): 1.06E+00 and 1.03E+00 and 1.05E+00
normalized TR-FRET ligand displacement signal, dose-response replicates (SI Fig 6) (HsProRS; Log[inhibitor] (M) -8.585, listed as Halofuginone (1)): 1.04E+00 and 1.03E+00 and 1.02E+00
normalized TR-FRET signal (Fig 2j) (HsProRS; Log[inhibitor] (M) -8.612): 1.10E+00 and 1.01E+00 and 9.98E-01
TR-FRET dose-response, normalized signal (SI Fig 11) (HsProRS; Log[inhibitor] (M) -8.612, listed as Halofuginone (1)): 9.43E-01 and 9.93E-01 and 8.80E-01
normalized TR-FRET signal (Fig 2j) (HsProRS; Log[inhibitor] (M) -8.913): 1.04E+00 and 1.15E+00 and 9.02E-01
TR-FRET dose-response, normalized signal (SI Fig 11) (HsProRS; Log[inhibitor] (M) -8.913, listed as Halofuginone (1)): 9.29E-01 and 9.23E-01 and 1.01E+00
normalized TR-FRET signal (Fig 2j) (HsProRS; Log[inhibitor] (M) -9.214): 9.13E-01 and 9.87E-01 and 1.00E+00
TR-FRET dose-response, normalized signal (SI Fig 11) (HsProRS; Log[inhibitor] (M) -9.214, listed as Halofuginone (1)): 1.03E+00 and 9.64E-01 and 9.56E-01
normalized TR-FRET signal (dose-response replicates) (HsProRS; Log[inhibitor] (M) -7, listed as Halofuginone (1)): -5.10E-02 and 1.45E-01 and 6.11E-02 and -8.68E-02 and 8.71E-02 and -1.63E-01
normalized TR-FRET signal (dose-response replicates) (HsProRS; Log[inhibitor] (M) -7.301, listed as Halofuginone (1)): -1.11E-01 and 1.65E-02 and 1.81E-01 and 1.03E-01 and -9.48E-02 and 1.44E-01
normalized TR-FRET signal (dose-response replicates) (HsProRS; Log[inhibitor] (M) -7.602, listed as Halofuginone (1)): -2.32E-02 and 2.15E-01 and 1.05E-01 and 1.32E-01 and 1.04E-01 and 2.19E-02
normalized TR-FRET signal (dose-response replicates) (HsProRS; Log[inhibitor] (M) -7.902, listed as Halofuginone (1)): 1.55E-01 and 5.85E-02 and 2.37E-01 and 1.20E-01 and -3.85E-02 and 1.09E-01
normalized TR-FRET signal (dose-response replicates) (HsProRS; Log[inhibitor] (M) -8.206, listed as Halofuginone (1)): 1.08E-02 and 1.11E-01 and 2.70E-01 and 1.81E-01 and 6.79E-02 and 2.75E-01
normalized TR-FRET signal (dose-response replicates) (HsProRS; Log[inhibitor] (M) -8.507, listed as Halofuginone (1)): 1.46E-01 and 1.20E-01 and 1.73E-01 and 3.30E-01 and 1.53E-01 and 2.25E-01
normalized TR-FRET signal (dose-response replicates) (HsProRS; Log[inhibitor] (M) -8.797, listed as Halofuginone (1)): 4.78E-02 and 3.34E-01 and 2.48E-01 and 1.28E-01 and 3.36E-01 and 3.00E-01
normalized TR-FRET signal (dose-response replicates) (HsProRS; Log[inhibitor] (M) -9.098, listed as Halofuginone (1)): 4.47E-01 and 3.74E-01 and 3.80E-01 and 4.11E-01 and 4.02E-01 and 4.65E-01
normalized TR-FRET signal (dose-response replicates) (HsProRS; Log[inhibitor] (M) -9.407, listed as Halofuginone (1)): 2.38E-01 and 7.71E-01 and 7.58E-01 and 8.49E-01 and 6.67E-01 and 6.46E-01
normalized TR-FRET signal (dose-response replicates) (HsProRS; Log[inhibitor] (M) -9.708, listed as Halofuginone (1)): 8.31E-01 and 9.16E-01 and 9.30E-01 and 9.90E-01 and 7.66E-01 and 7.98E-01
normalized TR-FRET signal (dose-response replicates) (HsProRS; Log[inhibitor] (M) -10.018, listed as Halofuginone (1)): 7.34E-01 and 7.78E-01 and 9.27E-01 and 9.57E-01 and 7.69E-01 and 9.42E-01
normalized TR-FRET signal (dose-response replicates) (HsProRS; Log[inhibitor] (M) -10.319, listed as Halofuginone (1)): 1.03E+00 and 8.60E-01 and 1.21E+00 and 9.50E-01 and 1.14E+00 and 9.79E-01
normalized TR-FRET signal (dose-response replicates) (HsProRS; Log[inhibitor] (M) -10.62, listed as Halofuginone (1)): 1.02E+00 and 8.83E-01 and 9.73E-01 and 1.04E+00 and 9.53E-01 and 9.56E-01
normalized TR-FRET signal (dose-response replicates) (HsProRS; Log[inhibitor] (M) -10.921, listed as Halofuginone (1)): 1.01E+00 and 1.12E+00 and 1.14E+00 and 9.45E-01 and 8.05E-01 and 9.06E-01
normalized TR-FRET signal (dose-response replicates) (HsProRS; Log[inhibitor] (M) -11.098, listed as Halofuginone (1)): 9.11E-01 and 1.15E+00 and 1.13E+00 and 1.03E+00 and 9.58E-01 and 9.14E-01
